Data from ChEMBL document CHEMBL2029323, “The discovery and development of selective 3-fluoro-4-aryloxyallylamine inhibitors of the amine oxidase activity of semicarbazide-sensitive amine oxidase/vascular adhesion protein-1 (SSAO/VAP-1)” (Bioorg Med Chem Lett, 2012).

System: not listed separately
Assay: Oral bioavailability in rat
Type: ADME, organism-based
Details: in vivo; call rule not given here

Compound	bioavailability
NC/C=C(/F)COc1ccc(C(=O)NC2CCCCC2)cc1	62%

System: not listed separately
Assay: Inhibition of CYP450
Type: ADME
Details: not given

Compound	inhibition (INH)
NC/C=C(/F)COc1ccc(C(=O)NC2CCCCC2)cc1	Not Active

System: Salmonella typhimurium
Assay: Mutagenic activity in Salmonella typhimurium by Ames test
Type: toxicity, organism-based
Details: salmonella enterica subsp. enterica serovar typhimurium

Compound	Activity
NC/C=C(/F)COc1ccc(C(=O)NC2CCCCC2)cc1	Non-toxic

Biological target: T1, Amine oxidase [copper-containing] 2 (Homo sapiens, UniProt O75106)
T1 sequence (O75106 whole entry): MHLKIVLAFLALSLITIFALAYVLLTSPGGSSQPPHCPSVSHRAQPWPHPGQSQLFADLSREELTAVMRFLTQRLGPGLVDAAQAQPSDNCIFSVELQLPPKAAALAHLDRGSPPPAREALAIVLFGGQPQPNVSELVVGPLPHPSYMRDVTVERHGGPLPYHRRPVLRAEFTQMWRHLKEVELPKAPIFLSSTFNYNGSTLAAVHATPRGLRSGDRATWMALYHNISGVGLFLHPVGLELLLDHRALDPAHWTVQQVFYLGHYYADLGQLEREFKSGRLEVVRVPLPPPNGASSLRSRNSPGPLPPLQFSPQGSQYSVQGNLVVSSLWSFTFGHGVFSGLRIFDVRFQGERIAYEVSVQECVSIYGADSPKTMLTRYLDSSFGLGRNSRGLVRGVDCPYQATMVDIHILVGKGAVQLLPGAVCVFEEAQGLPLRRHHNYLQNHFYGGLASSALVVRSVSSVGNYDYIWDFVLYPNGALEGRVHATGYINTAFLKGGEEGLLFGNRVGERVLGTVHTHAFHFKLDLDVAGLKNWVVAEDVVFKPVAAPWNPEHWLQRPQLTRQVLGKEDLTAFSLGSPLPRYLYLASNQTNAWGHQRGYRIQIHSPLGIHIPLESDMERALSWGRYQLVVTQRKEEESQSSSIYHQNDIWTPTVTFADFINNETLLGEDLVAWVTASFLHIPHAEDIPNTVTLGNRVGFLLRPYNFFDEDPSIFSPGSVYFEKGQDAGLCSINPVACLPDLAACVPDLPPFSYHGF
Assay: Inhibition of human AOC2
Details: not given

Compound	IC50
NC/C=C(/F)COc1ccc(C(=O)NC2CCCCC2)cc1	> 10 µM

Biological target: T2, Amine oxidase [copper-containing] 3 (Mus musculus, UniProt O70423)
T2 sequence (O70423 whole entry): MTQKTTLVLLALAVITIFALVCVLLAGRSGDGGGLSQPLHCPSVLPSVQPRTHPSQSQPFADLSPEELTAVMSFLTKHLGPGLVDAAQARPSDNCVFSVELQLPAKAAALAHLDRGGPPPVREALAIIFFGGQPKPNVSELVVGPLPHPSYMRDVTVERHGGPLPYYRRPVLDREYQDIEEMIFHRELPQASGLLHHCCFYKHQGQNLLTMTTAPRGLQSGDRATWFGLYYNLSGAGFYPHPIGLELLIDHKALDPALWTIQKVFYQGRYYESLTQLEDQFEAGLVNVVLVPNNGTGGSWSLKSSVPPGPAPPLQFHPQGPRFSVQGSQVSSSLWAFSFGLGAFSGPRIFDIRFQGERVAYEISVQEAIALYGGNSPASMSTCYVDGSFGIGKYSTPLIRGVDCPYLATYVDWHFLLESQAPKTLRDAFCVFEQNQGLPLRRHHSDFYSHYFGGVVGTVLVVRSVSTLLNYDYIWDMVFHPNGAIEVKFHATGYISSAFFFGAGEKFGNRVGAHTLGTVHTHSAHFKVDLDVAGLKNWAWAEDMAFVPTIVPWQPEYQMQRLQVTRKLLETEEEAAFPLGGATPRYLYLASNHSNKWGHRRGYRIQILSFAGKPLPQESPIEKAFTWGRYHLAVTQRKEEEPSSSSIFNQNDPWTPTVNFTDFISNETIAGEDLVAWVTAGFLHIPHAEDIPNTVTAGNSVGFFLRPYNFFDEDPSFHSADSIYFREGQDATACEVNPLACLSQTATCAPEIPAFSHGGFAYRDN
Assay: Inhibition of SSAO/VAP1 in mouse adipocytes measuring H2O2 production by Resorufin/Amplex Red assay
Type: cell-based
Details: not given

Compound	IC50
NC/C=C(/F)COc1ccc(C(=O)NC2CCCC2)cc1	530 nM
NC/C=C(/F)COc1ccc(C(=O)NC2CCCCC2)cc1	150 nM
C[C@H](NC(=O)c1ccc(OC/C(F)=C\CN)cc1)c1ccccc1	130 nM
NC/C(=C/F)CCc1ccc(F)cc1 [MOFEGILINE]	10 nM

System: Rattus norvegicus
Assay: Inhibition of SSAO/VAP1 in po dosed rat gonadal adipose tissue after 6 hrs
Type: functional, organism-based
Details: not given

Compound	EC50
NC/C=C(/F)COc1ccc(C(=O)NC2CCCCC2)cc1	10 mg/kg

System: Mus musculus
Assay: Inhibition of SSAO/VAP1 in po dosed mouse gonadal adipose tissue after 6 hrs
Type: functional, organism-based
Details: not given

Compound	EC50
NC/C=C(/F)COc1ccc(C(=O)NC2CCCCC2)cc1	10 mg/kg

Biological target: T3, Amine oxidase [copper-containing] 3 (Homo sapiens, UniProt Q16853)
T3 sequence (Q16853 whole entry): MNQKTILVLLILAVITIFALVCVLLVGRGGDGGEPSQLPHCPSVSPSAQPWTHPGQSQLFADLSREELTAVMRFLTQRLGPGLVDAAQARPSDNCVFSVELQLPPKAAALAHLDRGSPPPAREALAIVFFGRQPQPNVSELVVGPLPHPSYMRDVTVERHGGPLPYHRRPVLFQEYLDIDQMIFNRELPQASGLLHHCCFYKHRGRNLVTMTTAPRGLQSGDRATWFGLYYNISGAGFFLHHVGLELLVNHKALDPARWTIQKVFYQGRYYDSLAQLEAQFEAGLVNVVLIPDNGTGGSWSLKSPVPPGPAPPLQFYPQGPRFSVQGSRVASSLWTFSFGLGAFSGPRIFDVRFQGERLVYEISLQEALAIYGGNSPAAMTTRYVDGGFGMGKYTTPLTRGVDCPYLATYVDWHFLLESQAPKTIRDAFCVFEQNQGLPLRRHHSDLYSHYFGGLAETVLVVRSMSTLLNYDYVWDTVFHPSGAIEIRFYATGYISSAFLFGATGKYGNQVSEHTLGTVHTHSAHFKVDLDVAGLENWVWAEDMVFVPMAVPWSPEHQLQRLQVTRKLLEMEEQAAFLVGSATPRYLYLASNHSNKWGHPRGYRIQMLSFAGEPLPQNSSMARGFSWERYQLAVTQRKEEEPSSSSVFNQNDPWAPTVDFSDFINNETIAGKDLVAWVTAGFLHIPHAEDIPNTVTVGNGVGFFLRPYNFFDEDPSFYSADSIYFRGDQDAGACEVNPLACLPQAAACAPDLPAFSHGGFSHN
Assay: Inhibition of human recombinant SSAO/VAP1 assessed as H2O2 production by Resorufin/Amplex Red assay
Details: not given

Compound	IC50
NC/C=C(/F)COc1ccccc1	290 nM
NC/C=C(\F)COc1ccccc1	20000 nM
NCC=CCOc1ccccc1 [listing 1 of 2 here]	> 100000 nM
NCC=CCOc1ccccc1 [listing 2 of 2 here]	82000 nM
COc1ccc(OC/C(F)=C\CN)cc1	160 nM
NC/C=C(/F)COc1ccc(Oc2ccccc2)cc1	240 nM
NC/C=C(/F)COc1cccc(Cl)c1	250 nM
CSc1ccc(OC/C(F)=C\CN)cc1	20 nM
NC/C=C(/F)COc1ccc(C(=O)NC2CCCC2)cc1	20 nM
NC/C=C(/F)COc1ccc(C(=O)NC2CCCCC2)cc1	10 nM
C[C@H](NC(=O)c1ccc(OC/C(F)=C\CN)cc1)c1ccccc1	40 nM
NC/C(=C/F)CCc1ccc(F)cc1 [MOFEGILINE]	20 nM

Biological target: T4, Amine oxidase [flavin-containing] A (Homo sapiens, UniProt P21397)
T4 sequence (P21397 whole entry): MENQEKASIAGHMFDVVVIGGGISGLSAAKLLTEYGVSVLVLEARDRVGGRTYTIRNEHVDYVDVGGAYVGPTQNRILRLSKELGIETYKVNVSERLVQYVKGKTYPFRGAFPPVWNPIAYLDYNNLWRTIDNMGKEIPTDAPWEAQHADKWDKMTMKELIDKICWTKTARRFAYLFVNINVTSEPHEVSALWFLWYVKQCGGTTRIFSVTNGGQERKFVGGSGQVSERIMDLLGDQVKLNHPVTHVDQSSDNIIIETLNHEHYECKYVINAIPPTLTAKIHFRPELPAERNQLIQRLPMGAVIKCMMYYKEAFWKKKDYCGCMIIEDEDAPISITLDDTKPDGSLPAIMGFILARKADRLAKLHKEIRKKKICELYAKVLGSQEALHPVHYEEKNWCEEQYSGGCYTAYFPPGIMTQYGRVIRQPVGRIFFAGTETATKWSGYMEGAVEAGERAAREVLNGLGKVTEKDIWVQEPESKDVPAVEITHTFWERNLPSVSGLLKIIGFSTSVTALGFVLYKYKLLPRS
Assay: Inhibition of human recombinant MAO-A assessed as H2O2 production by Resorufin/Amplex Red assay
Details: not given

Compound	IC50
NC/C=C(/F)COc1ccccc1	> 30 µM
NC/C=C(/F)COc1ccc(C(=O)NC2CCCC2)cc1	> 30 µM
NC/C=C(/F)COc1ccc(C(=O)NC2CCCCC2)cc1	> 30 µM
C[C@H](NC(=O)c1ccc(OC/C(F)=C\CN)cc1)c1ccccc1	> 30 µM
NC/C(=C/F)CCc1ccc(F)cc1 [MOFEGILINE]	1.78 µM

System: not listed separately
Assay: Half life in po dosed rat
Type: ADME, organism-based
Details: in vivo

Compound	half-life
NC/C=C(/F)COc1ccc(C(=O)NC2CCCCC2)cc1	97 min

Biological target: recombinant human DAO (diamine oxidase) (Homo sapiens, UniProt P19801)
Assay: Inhibition of human DAO measuring H2O2 production by Resorufin/Amplex Red assay
Details: not given

Compound	IC50
NC/C=C(/F)COc1ccc(C(=O)NC2CCCC2)cc1	> 30 µM
NC/C=C(/F)COc1ccc(C(=O)NC2CCCCC2)cc1	26.1 µM
C[C@H](NC(=O)c1ccc(OC/C(F)=C\CN)cc1)c1ccccc1	74.1 µM
NC/C(=C/F)CCc1ccc(F)cc1 [MOFEGILINE]	> 10 µM

Biological target: T5, Amine oxidase [flavin-containing] B (Homo sapiens, UniProt P27338)
T5 sequence (P27338 whole entry): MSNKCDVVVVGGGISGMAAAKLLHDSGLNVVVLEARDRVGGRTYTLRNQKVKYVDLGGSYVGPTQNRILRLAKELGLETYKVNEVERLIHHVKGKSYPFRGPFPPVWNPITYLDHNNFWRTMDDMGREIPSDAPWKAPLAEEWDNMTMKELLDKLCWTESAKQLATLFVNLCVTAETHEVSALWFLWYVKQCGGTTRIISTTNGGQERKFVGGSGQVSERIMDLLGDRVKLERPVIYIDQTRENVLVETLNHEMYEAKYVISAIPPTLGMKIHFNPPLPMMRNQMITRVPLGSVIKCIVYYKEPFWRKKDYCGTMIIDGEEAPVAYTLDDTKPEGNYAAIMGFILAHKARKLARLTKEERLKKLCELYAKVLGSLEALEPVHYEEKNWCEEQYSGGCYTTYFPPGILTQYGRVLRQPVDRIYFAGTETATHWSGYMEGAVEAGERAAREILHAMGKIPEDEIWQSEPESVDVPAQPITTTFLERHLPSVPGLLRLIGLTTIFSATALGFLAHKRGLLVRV
Assay: Inhibition of human recombinant MAO-B assessed as H2O2 production by Resorufin/Amplex Red assay
Details: not given

Compound	IC50
NC/C=C(/F)COc1ccccc1	180 nM
COc1ccc(OC/C(F)=C\CN)cc1	310 nM
NC/C=C(/F)COc1ccc(Oc2ccccc2)cc1	450 nM
NC/C=C(/F)COc1cccc(Cl)c1	30 nM
CSc1ccc(OC/C(F)=C\CN)cc1	160 nM
NC/C=C(/F)COc1ccc(C(=O)NC2CCCC2)cc1	1640 nM
NC/C=C(/F)COc1ccc(C(=O)NC2CCCCC2)cc1	1120 nM
C[C@H](NC(=O)c1ccc(OC/C(F)=C\CN)cc1)c1ccccc1	6430 nM
NC/C(=C/F)CCc1ccc(F)cc1 [MOFEGILINE]	10 nM

Biological target: T3, Amine oxidase [copper-containing] 3
Assay: Inhibition of human SSAO/VAP1 measuring H2O2 production by Kitz and Wilson plot analysis
Details: not given

Compound	Ki
NC/C=C(/F)COc1ccc(C(=O)NC2CCCCC2)cc1	1640 nM
NC/C(=C/F)CCc1ccc(F)cc1 [MOFEGILINE]	1610 nM
